Values quoted from earlier work as cited in patent publication US6613244B2, “Ironing aid composition” (Unilever Home & Personal Care USA, division of Conopco, Inc., priority 2000, dated 2003).

Details: stated in words, related to ClogP

CC(=O)OC(c1ccccc1)C(Cl)(Cl)Cl (stereo not shown) [rose acetate]
solubility in water: not easily soluble in water
